Results on 36 compounds are retold here after PubChem BioAssay (NCI).

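Test compounds were applied to cells in 96-well plates for 48 hours at 5 doses. TGI denotes the concentration required for complete inhibition of growth.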 A value given as a limit tells only on which side of the number the result lay.

Some test systems named below: KM20L2 colon; DMS 273 small cell lung; SNB-78 CNS; M19-MEL melanoma; RXF-631 renal; LXFL 529 NSCLC; HOP-18 NSCLC; EKVX NSCLC; DLD-1 colon; DMS 114 small cell lung; XF 498 CNS.
Experiment in all cases: growth of human tumour cells (NCI), 48 h

As to `NC(CCCNc1ccc(O)cc1)C(=O)O` (stereo unspecified), the TGI in the assay on KM20L2 colon is greater than 100 µM; with DMS 273 small cell lung it was greater than 100 µM; with SNB-78 CNS, greater than 100 µM; in the assay with M19-MEL melanoma it was 32.7 µM; in the assay on RXF-631 renal, greater than 100 µM; with LXFL 529 NSCLC, 33.3 µM. Besides, the TGI in the assay on HOP-18 NSCLC was greater than 100 µM; in the assay on EKVX NSCLC, greater than 88.8 µM; in the assay with DLD-1 colon, 42.6 µM; with DMS 114 small cell lung it was 54.1 µM; in the assay on XF 498 CNS it was 38.2 µM.
Take `CCCCCCCCCCCCCCCCOP(=O)(O)OP(=O)(O)OCC1OC(n2cnc3c(N)ncnc32)C(O)C1O` (stereo unspecified): in the assay with EKVX NSCLC, the TGI was greater than 100 µM.
On to `Nc1nc(Cl)cc(NCC2(CO)CC(CCCc3ccccc3)C2)n1` (stereo unspecified), for which the TGI in the assay with EKVX NSCLC is greater than 100 µM.
Compound `Cn1cc(S(=O)(=O)NC(=O)Nc2ccc(Cl)cc2)c(=O)c2ccc(Cl)cc21` had a TGI with EKVX NSCLC greater than 100 µM.
In the assay on EKVX NSCLC, `c1ccc(C2(c3ccccc3)S/C(=C3/SC(c4ccccc4)(c4ccccc4)c4ccccc43)c3ccccc32)cc1` registered a TGI greater than 100 µM.
The compound `CCOc1cc(/C=N\O)cc(/C=N/O)c1O` registered a TGI in the assay on EKVX NSCLC greater than 100 µM.
As to `CCCCCCCCCCCCCCCCCCNc1ccn(C2OC(COP(=O)(O)OCC(COP(=O)(O)OCC3OC(n4cc(C)c(=O)[nH]c4=O)CC3N=[N+]=[N-])OCCCCCCCCCCCCCCCCCC)C(O)C2O)c(=O)n1` (stereo unspecified), the TGI with EKVX NSCLC was greater than 100 µM.
The compound `COc1c(N2CCCCC2)c2c(=O)c3ccccc3oc2c2cc(C)oc12` had a TGI with EKVX NSCLC of 89.1 µM.
On the same count and under the same terms, next, `Cc1ccc2c(=O)cc(-c3cc4ccccc4s3)[nH]c2n1`: greater than 100 µM.
The same measure, in the same setting: next, `COc1cc2c(NCCN(C)C)nc3c4cc5c(cc4ccc3c2cc1OC)OCO5`: 8.25 µM.
Consider `NCc1ccc(O)c(O)c1O`, for which the TGI is greater than 80.9 µM with KM20L2 colon; 31 µM in the assay with DMS 273 small cell lung; greater than 100 µM in the assay with SNB-78 CNS; 26.9 µM with M19-MEL melanoma; 30.6 µM in the assay with LXFL 529 NSCLC; greater than 100 µM with HOP-18 NSCLC. Besides, the TGI in the assay on EKVX NSCLC is greater than 100 µM; in the assay on DLD-1 colon, 37.2 µM; in the assay on DMS 114 small cell lung it was 42.8 µM; with XF 498 CNS, 56.4 µM.
`CC(/C=C/c1ccccc1)=N\N=C(C)\C=C\c1ccccc1`: the TGI with KM20L2 colon, in the assay with DMS 273 small cell lung, in the assay with SNB-78 CNS, in the assay with M19-MEL melanoma, in the assay on LXFL 529 NSCLC and in the assay on EKVX NSCLC was greater than 100 µM each time. In addition, the TGI in the assay with DLD-1 colon and in the assay with XF 498 CNS was greater than 100 µM throughout.
Consider `O=c1oc2cc(O)ccc2c(O)c1C(c1ccc2ccccc2c1)c1c(O)c2ccc(O)cc2oc1=O`, for which, in the assay with EKVX NSCLC, the TGI was greater than 100 µM.
In turn, `Cc1nc2ccc(F)cc2c2c1CCN2c1ccccc1` had a TGI in the assay with EKVX NSCLC of 94.9 µM.
For `O=C1CSC(c2c[nH]c3ccccc23)N1c1cccc([N+](=O)[O-])c1` (stereo unspecified), the TGI in the assay with EKVX NSCLC is greater than 100 µM.
`Cc1ccc(N/N=C/C2=CC(C)(C)C(C#N)(C#N)C(O)=C2C#N)cc1` registered a TGI in the assay with EKVX NSCLC greater than 100 µM.
`C=CC(C)CCC(C/C=C(\C)CCCC(C)C)C(=C)CCCC(C)C` (stereo unspecified) showed a TGI in the assay with EKVX NSCLC greater than 100 µM.
As for `SCc1ccc(-c2ccc(CS)cc2)cc1`, the TGI came to 53 µM in the assay on KM20L2 colon; 58.4 µM in the assay on DMS 273 small cell lung; 51 µM with SNB-78 CNS; 35.7 µM in the assay on M19-MEL melanoma; 28.7 µM in the assay with LXFL 529 NSCLC; 30.9 µM in the assay on HOP-18 NSCLC. In addition, the TGI amounted to 54.1 µM in the assay on EKVX NSCLC, 34.1 µM in the assay with DLD-1 colon, 25.6 µM in the assay on DMS 114 small cell lung and 36.6 µM with XF 498 CNS.
As to `CC(=O)O[C@H]1C[C@H]2[C@@H]([C@H](OC(C)=O)C[C@@H]3CC4(CC[C@@]32C)OOC2(CCCCC2)OO4)[C@@H]2CC[C@H]([C@H](C)CCC(N)=O)[C@@]12C`, the TGI in the assay with EKVX NSCLC worked out at 3.23 µM.
In the case of `Cc1c2ccccc2c(CSC(=N)N)c2ccccc12`, the TGI in the assay with EKVX NSCLC was 1.33 µM.
In the assay on EKVX NSCLC, `COc1ccc(OC)c2sc(N3C(=O)/C(=C/c4ccc(SC)cc4)N=C3c3ccccc3)nc12` showed a TGI greater than 100 µM.
On to `c1cc2c(cc1NC1=NCCO1)CCCC2`, for which the TGI in the assay on EKVX NSCLC came to 47 µM.
In turn, `Cc1ccc(N/C(=C(/C(Cl)=C(Cl)Cl)[N+](=O)[O-])n2nnc3ccccc32)cc1` had a TGI with EKVX NSCLC of 39.5 µM.
Same read-out and setting: then `O=C(N/C(=C\NC1=NCCS1)C(=O)N1CSC[C@@H]1C(=O)O)c1ccccc1`, with greater than 100 µM.
Compound `Cn1c(=O)c2c(nc(N3CCOCC3)n2CCCNCC(O)c2ccc(O)c(O)c2)n(C)c1=O` (stereo unspecified) displayed a TGI in the assay on EKVX NSCLC greater than 100 µM.
In the assay on EKVX NSCLC, `CSC1=NC(=O)CCN1C1OCC(OC(C)=O)C(OC(C)=O)C1OC(C)=O` (stereo unspecified) registered a TGI greater than 31.6 µM.
`COc1c(C(=O)/C(=N/Nc2cccc(Cl)c2)C(C)=O)c(O)c(OC)c2occc12` registered a TGI with EKVX NSCLC greater than 100 µM.
As for `S=C(Nc1ccc(Cl)cc1)c1ccc(CN2CCCCC2)s1`, the TGI in the assay with EKVX NSCLC came to 35.1 µM.
`CSc1ccc(/C=C/C(=O)c2nc3ccccc3[nH]2)cc1`: the TGI in the assay on EKVX NSCLC was 54.4 µM.
As to `O=C(O)COc1cc(-c2ccccc2F)nc2cc3c(cc12)OCO3`, the TGI in the assay on EKVX NSCLC was greater than 100 µM.
`O=P1(N(CCCl)CCCl)Oc2c(Cl)cc(Cl)c(Cl)c2Cc2c(Cl)c(Cl)cc(Cl)c2O1` had a TGI in the assay with EKVX NSCLC greater than 100 µM.
Compound `Clc1ccc(/C=c2\nc(-c3ccccc3)n3c2nc2ccccc23)cc1` returned a TGI in the assay on EKVX NSCLC of 71.4 µM.
For the compound `O=C1CC2(CCN(CC3COc4ccccc4O3)CC2)C(=O)N1N1CCCCCC1` (stereo unspecified), in the assay on EKVX NSCLC, the TGI was greater than 100 µM.
Same read-out and setting: next, `Clc1ccc(-c2c3nc(c(-c4ccc(Cl)cc4)c4ccc([nH]4)c(-c4ccc(Cl)cc4)c4nc(c(-c5ccc(Cl)cc5)c5ccc2[nH]5)C=C4)C=C3)cc1`: greater than 100 µM; `CC1(C)CC(=O)c2c([nH]c(=S)c(C#N)c2-c2ccc(Br)cc2)C1`: greater than 100 µM.
Still for that read-out and setting: then `O=C(c1ccc(-c2ccccc2)cc1)N(Cc1cccnc1)C(=S)N(Cc1cccnc1)C(=O)c1ccc(-c2ccccc2)cc1`, with greater than 100 µM.
